From PubChem BioAssay (NCI)
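Assay format: 96-well plates, 48-hour exposure. TGI denotes the concentration required for complete inhibition of growth.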

Assays:
Test in all cases: NCI-60 cell line screen, 48 h
[1] = system: SNB-75 CNS
[2] = system: CCRF-CEM leukemia
[3] = system: UACC-257 melanoma
[4] = system: SF-539 CNS
[5] = system: SK-OV-3 ovarian
[6] = system: HCC-2998 colon
[7] = system: NCI-H226 lung
[8] = system: MALME-3M melanoma

| Compound | TGI [1] [µM] | TGI [2] [µM] | TGI [3] [µM] | TGI [4] [µM] | TGI [5] [µM] | TGI [6] [µM] | TGI [7] [µM] | TGI [8] [µM] |
| --- | --- | --- | --- | --- | --- | --- | --- | --- |
| COc1ccc(/C=C\c2cc(OC)c(OC(C)=O)c(OC)c2)cc1 | 15 | 57.3 | 95.1 | 14.9 | > 100 | 36.7 | > 100 | 91.1 |
| O=c1c2ccc(Br)cc2nc(-c2ccccc2)n1NC1OC(CO)C(O)C(O)C1O (stereo not given) | > 100 | > 100 | > 100 | > 100 | > 100 | > 100 | > 100 | > 100 |
| O=C(NCCOCCO)c1ccc(O)cc1 |  | > 100 |  | > 100 | > 100 |  |  |  |
| Cc1cc2c(C=O)[nH]nc2c(C#N)c1C | 40.9 | > 100 | > 100 | 61.4 | > 100 | > 100 |  | > 100 |
| CCC1(O)CC(c2ccccc2)N(C)C(c2ccccc2)C1 (stereo not given) | > 100 | > 100 | > 100 | > 100 | > 100 | > 100 | > 100 | > 100 |
| CCOC(=O)/C(C#N)=C/c1[nH]c(C)c(C)c1C | > 100 | > 100 | > 100 | > 100 | > 100 | > 100 | > 100 | > 100 |
| CCN(CC)[C@@H]1c2cc3c(cc2C(c2cc(OC)c(O)c(OC)c2)C2C(=O)CO[C@@H]21)OCO3 (stereo not given in full) | > 100 | > 100 | > 100 | > 100 | > 100 | > 100 | > 100 | > 100 |
| CC(=O)c1ccc(-c2ccc(C(C)=O)s2)s1 | > 100 | > 100 | > 100 | > 100 | > 100 | > 100 | > 100 | > 100 |
| C[C@]12CC[C@H](O)CC1CCC[C@@H]2O (stereo not given in full) | > 100 | > 100 | > 100 | > 100 | > 100 | > 100 |  | > 100 |
| C=C1[C@@H]2CCC(C)(C)[C@H]1CCC(=O)[C@@H]2C(=O)OC |  | > 100 | > 100 | > 100 |  | > 100 | > 100 | > 100 |
| OCC1C2C=CC(O2)[C@H]1CO (stereo not given in full) | > 100 | > 100 | > 100 | > 100 | > 100 | > 100 | > 100 | > 100 |
| CC12CCC(C)(c3cc(O)c(O)cc31)c1cc(O)c(O)cc12 | 52.5 | 11.1 | 29.8 |  | 36.7 | 33.6 |  | 45.2 |
| COC(=O)C1=CCS(=O)(=O)C1 | > 100 |  | > 100 | > 100 | > 100 | > 100 | > 100 | > 100 |
| CC(=O)Oc1cc(OC(C)=O)c(OC(C)=O)c2c1CC1C(=O)C3(CCc4ccccc43)C(=O)C1C2 (stereo not given) | 16.7 | 75.9 |  |  | 58.8 | 25.2 |  | 20.1 |
| NCCCSCC(=O)O | > 100 |  | > 100 | > 100 | > 100 | > 100 | > 100 | > 100 |
| Cc1ccc(Sc2cc([N+](=O)[O-])cc(Sc3ccc(C)cc3)c2Sc2ccc(C)cc2)cc1 | > 100 | 65.4 | > 100 | > 100 |  | > 100 | > 100 | > 100 |
| O=C1CCC(=O)C12CCc1ccccc12 | > 100 |  |  |  | > 100 | > 100 |  | > 100 |
| OC1OC2COC(c3ccccc3)OC2C(O)C1O (stereo not given) |  | > 100 | > 100 | > 100 | > 100 | > 100 | > 100 | > 100 |
| O=C1C2Cc3ccccc3CN2C(=O)N1CCN1CCOCC1 (stereo not given) |  | > 100 |  | > 100 |  | > 100 | > 100 | > 100 |
| COc1ccc2c(c1)[n+](=O)c(C(=O)C/C(=N\NC(=O)C[N+](C)(C)C)C(=O)Nc1cc(Cl)ccc1Cl)c(C)n2O | > 100 | > 100 | > 100 | > 100 |  | > 100 | > 100 | > 100 |
| CCCCCCCCCCCCCCCc1nc(SCC(=O)O)n[nH]1 |  | > 100 | > 100 | > 100 | > 100 | > 100 |  | > 100 |
| O=c1cc(/C=C/c2ccccc2)c2ccc(O/C(=C\c3ccccc3)c3nc4ccccc4c(=O)o3)cc2o1 |  | 66.5 | 98.4 | 63.2 | > 100 | > 100 |  | > 100 |
| Cn1c(=O)c2nc3sc4ccccc4c(=N)n3c2n(C)c1=O |  | > 100 | > 100 | > 100 | > 100 | > 100 | > 100 | > 100 |
| O=C1OC(=O)C2C1C1(c3ccccc3)OC2(c2ccccc2)c2c(Br)c(Br)c(Br)c(Br)c21 (stereo not given) | > 100 | > 100 | > 100 | > 100 | 74.9 |  | > 100 | > 100 |
